In patent US12415799B2, “Indazole-fused cyclic compound” (Zhejiang Yangli Pharmaceutical Technology Co., Ltd., priority 2020, dated 2025):

Assays:
ERα = ERα (Homo sapiens (Human), UniProt P03372); assay: Degradation experiment of MCF-7 ERα (ELISA); type: cell-based; conditions: MCF-7 cell line, 4 hours incubation, total ERα ELISA; read-out: IC50 value of promoting ERα degradation
Text: (2) Degradation Experiment of MCF-7 ERα Experimental Materials:
Phenol red-free MEM culture medium was purchased from Wisent, fetal bovine serum was purchased from Biosera, and Human Total ERα/NR3A1 ELISA kit was purchased from R&D. MCF-7 cell line was purchased from Cell Bank of Type Culture Collection of Chinese Academy of Sciences. Nivo5 multi-label analyzer (PerkinElmer).
MCF-7 cells were resuspended in culture medium (phenol red-free MEM+5% charcoal/dextran-treated fetal bovine serum+1% penicillin-streptomycin double antibody solution), and seeded in a clear 96-well cell culture plate with 80 μL per well containing 20,000 cells, and the cell culture plate was incubated overnight in a carbon dioxide incubator;
ELISA plate was coated with strips, human total estrogen receptor a capture antibody was diluted with 1×PBS with a final concentration of 1 μg/mL, and 100 μL of mixture was added to each well, and incubated overnight at 25° C.
Cell administration: The test compound was diluted to the 8th concentration with a multi-channel pipette, and the compound concentration was 20 μM and 4 μM, and then diluted to the 8th concentration of 0.256 nM in turn, and a double-duplicate experiment was set-up. 78 μL of culture medium was added to the middle plate, then 2 μL of gradient dilution compound per well was transferred to the middle plate according to the corresponding position, and 20 μL of the mixture per well was mixed evenly and transferred to the cell plate, and the final concentration of DMSO was 0.5%, and the mixture was incubated at 37° C. for 4 hours;
preparation of standard curve solution: 110 ng/mL of standard curve storage solution was 6-fold diluted with buffer (1×PBS containing 1 mM EDTA, 0.5% Triton X-100, pH 7.2 to 7.4) to obtain a solution with a concentration of 18.3 ng/mL, and then 91.5-fold diluted with buffer (1×PBS containing 1 mM EDTA, 0.5% Triton X-100, 1 M urea, pH 7.2 to 7.4) to obtain a solution with a concentration of 0.2 ng/mL, and 8-point gradient dilution was performed using buffer (1×PBS containing 1 mM EDTA, 0.5% Triton X-100, 1 M urea, pH 7.2 to 7.4) with a final concentration of […].
1×PBS was pre-cooled, and after the incubation of the compound, the supernatant was removed, and then the plate was washed with 250 μL of pre-cooled 1×PBS per well, then 30 µL of cell lysate per well (1×PBS containing 1 mM EDTA, 0.5% Triton X-100, 6 M urea, 1 mM active sodium orthovanadate, 2.5 mM sodium pyrophosphate, lx protease inhibitor, pH 7.2 to 7.4) was added, and lysed on ice for 15 minutes;
after cell was lysed in the cell plate, the cell lysate was 6-fold diluted with 150 μL of buffer (1×PBS containing 1 mM EDTA, 0.5% Triton X-100, pH 7.2 to 7.4) per well, and the mixture was mixed evenly by blowing with a multi-channel pipette, and 100 μL of solution per well was transferred to the ELISA plate;
the human total estrogen receptor a detection antibody stock solution (14.4 μg/mL) was 36-fold diluted with buffer (1×PBS containing 1% bovine serum albumin), and the final concentration of the detection antibody was 400 ng/mL, and 100 μL of the solution per well was transferred to the ELISA plate and incubated at 25° C. for 2 hours;
Data analysis: A, B, C and D in the four-parameter equation y=(A−D)/[1+(x/C)^B]+D were calculated according to the original data of the standard curve, wherein, y was the original OD450 value, x was the concentration of the corresponding point of the standard curve. According to the four-parameter equation and the OD450 reading of the original data of the sample, the concentration of ERα at the corresponding point was calculated. The equation (Sample−Min)/(Max−Min)×100% was used to convert the original data into inhibition rate, and the IC50 value could be obtained by curve fitting with four parameters (obtained by “log (inhibitor) vs. response—variable slope” mode in GraphPad Prism).
Max wells: Positive control wells reading at 100 nM Fulvestrant-treated cell wells […]

rat uterus = assay: Uterine wet weight inhibition experiment in rat cubs; type: in vivo; conditions: 18-day-old female rat pups, oral, three consecutive days; compounds 25 mg/kg, Ethinylestradiol 0.1 mg/kg
Protocol: The purpose of this experiment was to evaluate the effect of the compound of the present disclosure on uterine growth inhibition in 18 to 21-day-old female rat pups (provided by Beijing Vital River Laboratory Animal Technology Co., Ltd.). In this experiment, 18-day-old female rat pups were orally administered the compound of the present disclosure at a dose of 25 mg/kg for three consecutive days, and the control group was orally administered 0.1 mg/kg of Ethinylestradiol for three consecutive days, and the blank group was not given any drug except the corresponding solvent. Three days after the administration, the rats were sacrificed, and the weight of the rat uterus was weighed to observe the effect of the test drug on the growth inhibition of the rat uterus. Inhibition rate=100×[(VehicleEE−Cpd)/(VehicleEE−Vehicle)], VehicleEE was the wet weight of the rat uterus in the control group (administered 0.1 mg/kg of Ethinylestradiol orally); Cpd was the wet weight of the rat uterus in administration group; Vehicle was the wet weight of the rat uterus in the blank group.

Chain of ERα (P03372 whole entry): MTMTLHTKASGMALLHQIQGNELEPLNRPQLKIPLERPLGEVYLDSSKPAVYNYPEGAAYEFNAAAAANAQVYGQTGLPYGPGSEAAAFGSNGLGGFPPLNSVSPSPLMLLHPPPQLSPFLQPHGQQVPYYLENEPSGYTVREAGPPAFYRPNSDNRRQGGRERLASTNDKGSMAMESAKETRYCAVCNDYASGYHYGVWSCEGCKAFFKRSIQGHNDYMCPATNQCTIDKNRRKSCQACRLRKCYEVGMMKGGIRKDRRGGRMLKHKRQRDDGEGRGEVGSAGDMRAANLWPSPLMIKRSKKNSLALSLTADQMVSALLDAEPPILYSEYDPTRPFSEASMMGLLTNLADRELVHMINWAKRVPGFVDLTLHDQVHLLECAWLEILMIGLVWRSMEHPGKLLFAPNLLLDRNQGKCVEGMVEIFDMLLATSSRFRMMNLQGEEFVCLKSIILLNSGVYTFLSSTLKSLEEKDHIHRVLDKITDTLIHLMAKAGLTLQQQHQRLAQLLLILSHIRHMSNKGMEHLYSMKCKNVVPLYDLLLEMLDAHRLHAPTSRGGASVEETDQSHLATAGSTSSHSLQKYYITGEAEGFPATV

| Structure (SMILES) | DC50 (ERα) [nM] | Inhibition rate (rat uterus) [%] | Ratio of uterine wet weight/rat body weight (rat uterus) [mg/g] | Uterine wet weight (rat uterus) [mg] | IC50 (ERα) [nM] |
| --- | --- | --- | --- | --- | --- |
| FCCCN1CC(Nc2ccc(C3=C(CC(F)(F)F)CCCc4c3ccc3[nH]nc(F)c43)nc2)C1 [Compound 2] | 0.2 | 95.8 | 0.84 | 52.34 |  |
| FCCCN1CC[C@H](Nc2cnc(C3=C(CC(F)(F)F)CCCc4c3ccc3[nH]nc(F)c43)cn2)C1 [Compound 11A] |  | 99.0 | 1.05 | 49.725 | 0.23 |
